Results as given in patent publication US20150133450A1, “METHODS AND COMPOSITIONS USEFUL FOR TREATING DISEASES INVOLVING BCL-2 FAMILY PROTEINS WITH QUINOLINE DERIVATIVES” (Eutropics Pharmaceuticals, Inc., priority 2012, published 2015).

Assays:
[1] = test system: Mcl-1 1780 cell line; assay: DAPI fluorescence cell-based cytotoxicity (apoptosis) assay, Mcl-1 1780; set-up: species or system mouse; settings: 1 μM, 500 nM, 250 nM, 125 nM; 24 hours; FIG. 2
Description: (§1) The mouse leukemia-derived cell lines Mcl-1-1780 and Bcl-2-1863 (Ryan et al., Proc. Nat. Acad. Sci USA, 107, 12895-12900, which is hereby incorporated by reference in its entirety) were obtained under license from Dana Farber Cancer Institute. Cells were grown in RPMI 1640 medium (GIBCO-BRL) with 2 mM L-glutamine, 4.5 g/L glucose, 1.0 mM sodium pyruvate and 5% fetal bovine serum. Cells were expanded in tissue culture in appropriate media and then sub-cultured into 96-well plates at a seeding density of 20,000 cells per well. After incubation for 24 hours, cells were treated with compounds that are titrated into appropriate medium with FCS. Four concentrations of compound were used: 1 μM, 500 nM, 250 nM, and 125 nM. Assay was run in triplicate for each compound at each concentration and averages were calculated. Cells were treated with compound for 24 hours, then fixed with methanol and stained with the DNA-binding agent DAPI (4′,6-diamidino-2-phenylindole). The cells were then examined by fluorescent microscopy; cells in which caspase 3 and caspase 7 have not been activated will emit at […] when excited by […] light. Caspase-mediated cleavage of nucleosomal proteins causes condensed, pycnotic nuclear morphology that may be measured by cell counting.

[2] = test system: Bcl-2 1863 cell line; assay: DAPI fluorescence cell-based cytotoxicity (apoptosis) assay, Bcl-2 1863; set-up: species or system mouse; settings: 1 μM, 500 nM, 250 nM, 125 nM; 24 hours; relative to Mcl-1 1780; FIG. 2
Description: as §1

[3] = test system: DHL-6 cell line; assay: In situ mitochondrial cytochrome c release assay, DHL-6; format: cell-based; settings: semi-permeabilized cells, 1 hour; Bax/Bak-functional cell line; FIG. 3
Text: (§2) The on-target activity of compound 12 was validated. Changes in mitochondrial integrity were observed utilizing anti-cytochrome c conjugated to Alexa488 (BD). When the mitochondria are intact, they retain cytochrome c and have bright, punctate staining with the antibody whereas cells with compromised mitochondrial integrity will lose cytochrome c and will not stain with the antibody. This can be observed by microscopy as well as measured by a shift in fluorescence on the FL1 channel of a flow cytometer.
(§3) The selective response of mitochondria in semi-permeabilized cell lines to the compounds was observed. The assay was adapted from (Campos et al. (2006) Cytometry Part A. 69(A):515-523, which is hereby incorporated by reference in its entirety).
(§4) Suspension cell lines SUDHL6, SUDHL8, and SUDHL10 were grown in RPMI, washed once in 1×PBS and re-suspended at a concentration of 2e6/ml in assay buffer with 0.0025% Digitonin. Assay buffer; 300 mM Trehalose, 10 mM HEPES-KOH pH 7.7, 80 mM KCl, 1 mM EGTA, 1 mM EDTA, 0.1% BSA, 5 mM Succinate. […] Cytochrome c loss was measured by microscopy. At least 100 cells per treatment were counted and scored as positive for cytochrome c loss if they lacked staining. In both methods DMSO was calculated as 0% cytochrome c loss and the Bim response for DHL6 was used to determine 100% cytochrome c loss.

[4] = test system: DHL-8 cell line; assay: In situ mitochondrial cytochrome c release assay, DHL-8; format: cell-based; settings: semi-permeabilized cells, 1 hour; reduced mitochondrial priming; FIG. 3
Text: as §2, §3, §4

[5] = test system: DHL-10 cell line; assay: In situ mitochondrial cytochrome c release assay, DHL-10; format: cell-based; settings: semi-permeabilized cells, 1 hour; Bax/Bak-deficient cell line; FIG. 3
Text: as §2, §3, §4

In the case of `CCN1CCN(C(c2ccc(C(F)(F)F)cc2)c2ccc3cccnc3c2O)CC1` (centres unmarked) [Compound 12, 7-((4-ethylpiperazin-1-yl)(4-(trifluoromethyl)phenyl)methyl)quinolin-8-ol], the “Induction of apoptosis (DAPI nuclear morphology) in Mcl-1 1780” value [1] is reported as “induce apoptosis”, the “Induction of apoptosis (DAPI nuclear morphology) in Bcl-2 1863” value [2] is reported as “significantly lesser degree” and the “Cytochrome c release, DHL-6” value [3] is reported as “activity”. The “Cytochrome c release, DHL-8” value [4] was “reduced activity” and the “Cytochrome c release, DHL-10” value [5] was “lack of activity”.
